Laboratory results from patent publication US7427620B2, “Azole derivative useful as antifungal agents with reduced interaction with metabolic cytochromes” (Italfarmaco SPA, priority 2003, dated 2008).
Values after ≈ are worked out from the molar mass of the structure shown. Read-outs that look alike come from different tables or passages of the source.

Legend:
[1] = test system: Candida albicans; test: Antifungal activity, liquid phase microdilution (NCCLS M27/M38-P); format: cell-based
Experimental: (§1) Experiment A: Antifungal Activity of Compounds of the Formula (I)
(§2) The antifungal activity of the compounds of the formula (I) was determined using various strains of yeast and filamentous fungi. […] Table no.

[2] = test system: Aspergillus fumigatus; test: as above; format: cell-based; parameters: IC50 (minimum concentration to bring about 50% inhibition): unit not given here; details: for IC50: Aspergillus fumigatus
Experimental: as §1, §2

[3] = test system: Candida glabrata; test: as above; format: cell-based; details: for IC50 (minimum concentration to bring about 50% inhibition): Candida glabrata strain 02-0902
Experimental: as §1, §2

[4] = test system: Candida parapsilosis; test: as above; format: cell-based; details: for IC50 (minimum concentration to bring about 50% inhibition): Candida parapsilosis strain ATCC22019
Experimental: as §1, §2

[5] = biological target: T1, CYP1A2 (Homo sapiens, UniProt P05177); test: Inhibition of human cytochromes, fluorescent substrates; format: in vitro ADME; details: isoenzyme (Gentest), 37° C.
T1 construct: purchased Gentest
T1 sequence (P05177 1-516): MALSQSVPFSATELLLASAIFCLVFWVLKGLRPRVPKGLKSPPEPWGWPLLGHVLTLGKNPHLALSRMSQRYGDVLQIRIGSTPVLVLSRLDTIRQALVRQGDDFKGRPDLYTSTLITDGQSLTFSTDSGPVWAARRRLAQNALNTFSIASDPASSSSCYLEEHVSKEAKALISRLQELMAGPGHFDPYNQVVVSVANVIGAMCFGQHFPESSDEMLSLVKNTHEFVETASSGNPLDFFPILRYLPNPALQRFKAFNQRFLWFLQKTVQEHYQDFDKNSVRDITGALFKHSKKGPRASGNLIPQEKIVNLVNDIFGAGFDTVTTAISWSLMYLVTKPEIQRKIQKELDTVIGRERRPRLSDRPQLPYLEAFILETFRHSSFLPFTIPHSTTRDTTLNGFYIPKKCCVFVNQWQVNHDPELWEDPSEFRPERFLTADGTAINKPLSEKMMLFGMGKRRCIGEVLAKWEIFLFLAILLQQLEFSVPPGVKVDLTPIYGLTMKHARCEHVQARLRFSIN
Experimental: (§3) Experiment B: Inhibition of Human Cytochromes by Compounds of the Formula (I)
(§4) Inhibition of the enzymatic activity of the most significant isoforms of human cytochromes by the compounds of the formula (I) was measured by using specific substrates which become fluorescent as a result of the metabolic action of a particular cytochrome isoform. The individual isoenzymes (Gentest) and the respective substrates were incubated in 96 well plates in buffer containing […] at 37° C. in the presence or absence of the compound under investigation. […] The degree of inhibition of each individual isoenzyme by known inhibitors was also assessed as a positive control.

[6] = biological target: T2, CYP2C19 (Homo sapiens, UniProt P33261); test: as above; format: in vitro ADME; details: isoenzyme (Gentest), 37° C.
T2 construct: purchased Gentest
T2 sequence (P33261 whole entry): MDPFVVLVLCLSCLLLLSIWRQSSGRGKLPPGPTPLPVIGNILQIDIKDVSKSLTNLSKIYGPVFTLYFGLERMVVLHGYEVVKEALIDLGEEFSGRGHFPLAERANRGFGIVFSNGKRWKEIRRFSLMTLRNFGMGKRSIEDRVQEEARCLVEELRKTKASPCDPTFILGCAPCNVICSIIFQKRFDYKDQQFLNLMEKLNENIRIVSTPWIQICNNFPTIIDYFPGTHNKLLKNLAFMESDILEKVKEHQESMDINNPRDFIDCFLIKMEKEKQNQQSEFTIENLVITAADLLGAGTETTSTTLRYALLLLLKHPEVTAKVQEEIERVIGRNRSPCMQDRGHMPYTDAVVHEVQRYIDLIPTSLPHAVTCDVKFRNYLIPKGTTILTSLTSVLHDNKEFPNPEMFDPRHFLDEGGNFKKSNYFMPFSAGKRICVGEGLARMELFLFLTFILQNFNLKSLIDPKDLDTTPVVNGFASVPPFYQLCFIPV
Experimental: as §3, §4

[7] = biological target: T3, CYP2C9 (Homo sapiens, UniProt P11712); test: as above; format: in vitro ADME; details: isoenzyme (Gentest), 37° C.
T3 construct: purchased Gentest
T3 sequence (P11712 whole entry): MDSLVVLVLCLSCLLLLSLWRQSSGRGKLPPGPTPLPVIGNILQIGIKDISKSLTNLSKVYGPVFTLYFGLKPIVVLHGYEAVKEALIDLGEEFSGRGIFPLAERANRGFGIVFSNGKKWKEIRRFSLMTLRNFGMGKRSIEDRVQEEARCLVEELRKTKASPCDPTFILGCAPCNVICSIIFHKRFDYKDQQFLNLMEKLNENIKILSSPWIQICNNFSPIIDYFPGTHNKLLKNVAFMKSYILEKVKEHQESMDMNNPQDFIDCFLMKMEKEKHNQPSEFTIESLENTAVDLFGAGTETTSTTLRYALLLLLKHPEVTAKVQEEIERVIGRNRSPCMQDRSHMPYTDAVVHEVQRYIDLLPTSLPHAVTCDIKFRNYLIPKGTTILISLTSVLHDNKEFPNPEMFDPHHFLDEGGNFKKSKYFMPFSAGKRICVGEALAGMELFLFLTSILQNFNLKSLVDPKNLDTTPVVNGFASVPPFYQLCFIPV
Experimental: as §3, §4

[8] = biological target: T4, CYP2D6 (Homo sapiens, UniProt P10635); test: as above; format: in vitro ADME; details: isoenzyme (Gentest), 37° C.
T4 construct: purchased Gentest
T4 sequence (P10635 whole entry): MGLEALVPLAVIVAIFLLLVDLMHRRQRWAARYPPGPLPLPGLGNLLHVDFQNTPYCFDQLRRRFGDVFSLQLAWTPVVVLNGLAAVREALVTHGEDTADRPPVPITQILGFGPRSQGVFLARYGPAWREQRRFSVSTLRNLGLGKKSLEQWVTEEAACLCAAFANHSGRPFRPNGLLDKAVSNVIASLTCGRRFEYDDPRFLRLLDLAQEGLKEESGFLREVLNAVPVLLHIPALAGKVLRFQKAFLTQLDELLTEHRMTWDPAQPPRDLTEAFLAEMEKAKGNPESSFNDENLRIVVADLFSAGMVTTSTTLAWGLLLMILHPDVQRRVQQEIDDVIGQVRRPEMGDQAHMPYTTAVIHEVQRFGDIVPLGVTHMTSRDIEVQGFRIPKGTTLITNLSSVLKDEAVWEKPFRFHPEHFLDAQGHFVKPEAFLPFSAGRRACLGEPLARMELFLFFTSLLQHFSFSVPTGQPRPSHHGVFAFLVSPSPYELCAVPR
Experimental: as §3, §4

[9] = biological target: T5, CYP3A4 (Homo sapiens, UniProt P08684); test: as above; format: in vitro ADME; details: isoenzyme (Gentest), 37° C.
T5 construct: purchased Gentest
T5 sequence (P08684 whole entry): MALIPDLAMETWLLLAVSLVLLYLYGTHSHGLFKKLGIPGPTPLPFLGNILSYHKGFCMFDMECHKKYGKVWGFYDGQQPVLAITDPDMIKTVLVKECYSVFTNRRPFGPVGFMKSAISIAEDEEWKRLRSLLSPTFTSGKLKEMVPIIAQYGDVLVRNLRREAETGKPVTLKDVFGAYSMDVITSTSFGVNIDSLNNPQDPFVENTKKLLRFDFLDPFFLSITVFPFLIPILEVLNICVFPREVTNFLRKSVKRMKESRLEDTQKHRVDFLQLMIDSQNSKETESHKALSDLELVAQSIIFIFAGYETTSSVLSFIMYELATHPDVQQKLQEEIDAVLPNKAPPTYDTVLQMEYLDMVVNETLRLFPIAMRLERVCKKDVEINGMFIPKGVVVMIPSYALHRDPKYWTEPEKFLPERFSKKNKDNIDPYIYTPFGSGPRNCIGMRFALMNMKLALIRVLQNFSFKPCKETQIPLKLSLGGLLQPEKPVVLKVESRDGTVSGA
Experimental: as §3
The individual isoenzymes (Gentest) and the respective substrates were incubated in 96 well plates in buffer containing […] at 37° C. in the presence or absence of the compound under investigation. […] The degree of inhibition of each individual isoenzyme by known inhibitors was also assessed as a positive control.

[10] = test system: Candida albicans; test: Mouse model of systemic candidiasis, survival; format: in vivo, CD1 mice; details: 50 mg/kg/day orally (25 mg/kg twice daily) for 10 days
Experimental: Experiment C: Study of the Efficacy of Compounds of the Formula (I) in a Mouse Model of Systemic Candidiasis.
The C. albicans isolate was cultured for 24 h in yeast dextrose broth. The blastospores were recovered by centrifugation, repeatedly washed in sterile saline solution and the inoculum adjusted to the desired concentration. The inoculum was verified by a subsequent count of CFU/ml on Sabouraud plates.
The mice were then inoculated intravenously (0.2 ml/mouse).
24 hours after inoculation with C. albicans, the animals were randomised into the following treatment groups (10 mice/group): • 1. […] Compound under investigation: 50 mg/kg/day (two 25 mg/kg treatments twice daily at 12 hour intervals) • 3. Compound under investigation; 10 mg/kg/day (two 5 mg/kg treatments twice daily at 12 hour intervals) • 4. Control (placebo)
The compounds were administered orally (suspension in PEG 200, 0.2 ml/mouse) for 10 consecutive days and the animals were observed until day 30. The survival curves between the various treatment groups and between these groups and the control group were evaluated using the Kaplan-Meier method.

[11] = Aspergillus fumigatus strain 34
[12] = Aspergillus fumigatus strain 99-2135

Molecule	IC50 (minimum concentration to bring about 50% inhibition) ([1]; Candida albicans strain 21) [µg/mL]	IC50 (minimum concentration to bring about 50% inhibition) ([1]; Candida albicans strain gen-45)	IC50 (minimum concentration to bring about 50% inhibition) [3] [µg/mL]	IC50 (minimum concentration to bring about 50% inhibition) [4]	IC50 (minimum concentration to bring about 50% inhibition) [2, 12]	IC50 [5] [µM]	IC50 [6] [µM]	IC50 [7] [µM]	IC50 [8] [µM]	IC50 [9] [µM]	further results
CCC(C)n1ncn(-c2ccc(N3CCN(c4ccc(OCC5COC(Cn6cncn6)(c6cccc[n+]6[O-])O5)cc4)CC3)cc2)c1=O (racemic) [Example 17, cis(±)-4-{4-[4-{4-[2-(1-oxy-pyridin-2-yl)-2-(1H-1,2,4-triazol-1-yl-methyl)-1,3dioxolan-4-yl-methoxy]phenyl}piperazin-1-yl]-phenyl}-2-[(1,R/S)-1-methylpropyl]-2,4-dihydro-3H-1,2,4-triazol-3-one]	38000 (≈ 58100 µM)	–	–	–	–	–	–	–	–	–	IC50 (minimum concentration to bring about 50% inhibition) [2, 11]: >64
CC[C@H](C)n1ncn(-c2ccc(N3CCN(c4ccc(OC[C@H]5CO[C@@](Cn6cncn6)(c6ccccn6)O5)cc4)CC3)cc2)c1=O (relative stereo) [Example 14, cis(+)-4-{4-[4-{4-[2-(pyridin-2-yl)-2-(1H-1,2,4-triazol-1-yl-methyl)-1,3-dioxolan-4-yl-methoxy]phenyl}piperazin-1-yl]-phenyl}-2-[(1,S)-1-methylpropyl]-2,4-dihydro-3H-1,2,4-triazol-3-one]	–	≦0.03 mg/ml	2000 (≈ 3140 µM)	0.06	0.5	> 100	27.9 ± 0.8	40 ± 11.2	> 100	0.19 ± 0.08	–
CCC(C)n1ncn(-c2ccc(N3CCN(c4ccc(OCC5COC(Cn6cncn6)(c6cc[n+]([O-])cc6)O5)cc4)CC3)cc2)c1=O (racemic) [Example 18, cis(±)-4-{4-[4-{4-[2-(1-oxy-pyridin-4-yl)-2-(1H-1,2,4-triazol-1-yl-methyl)-1,3-dioxolan-4-yl-methoxy]phenyl}piperazin-1-yl]phenyl}-2-[(1,R/S)-1-methylpropyl]-2,4-dihydro-3H-1,2,4-triazol-3-one]	78000 (≈ 119000 µM)	–	–	–	–	–	–	–	–	–	–
cis(±)-4-{4-[4-{4-[2-(pyridin-4-yl)-2-(1H-1,2,4-triazol-1-yl-methyl)-1,3-dioxolan-4-yl-methoxy]phenyl}-1-piperazinyl]-phenyl}-2-(1-(R,S)methylpropyl)-2,4-dihydro-3H-1,2,4-triazol-3-one [Example 10]	39000	–	–	–	–	–	–	–	–	–	IC50 (minimum concentration to bring about 50% inhibition) [2, 11]: 8
CC[C@H](C)n1ncn(-c2ccc(N3CCN(c4ccc(OC[C@H]5CO[C@@](Cn6cncn6)(c6ccccn6)O5)cc4)CC3)cc2)c1=O (relative stereo) [Example 13, cis(−)-4-{4-[4-{4-[2-(pyridin-2-yl)-2-(1H-1,2,4-triazol-1-yl-methyl)-1,3-dioxolan-4-yl-methoxy]phenyl}piperazin-1-yl]-phenyl}-2-[(1,S)-1-methylpropyl]-2,4-dihydro-3H-1,2,4-triazol-3-one]	–	≦0.03 mg/ml	1000 (≈ 1570 µM)	≦0.03 mg/ml	0.25	> 100	28.4 ± 8.8	27.2 ± 6.7	> 100	0.46 ± 0.37	–
CC[C@@H](C)n1ncn(-c2ccc(N3CCN(c4ccc(OC[C@H]5CO[C@@](Cn6cncn6)(c6ccccn6)O5)cc4)CC3)cc2)c1=O (relative stereo) [Example 16, cis(+)-4-{4-[4-{4-[2-(pyridin-2-yl)-2-(1H-1,2,4-triazol-1-yl-methyl)-1,3-dioxolan-4-yl-methoxy]phenyl}piperazin-1-yl]-phenyl}-2-[(1,R)-1-methylpropyl]-2,4-dihydro-3H-1,2,4-triazol-3-one]	–	≦0.03 mg/ml	500 (≈ 784 µM)	0.06	0.25	> 100	43.1 ± 15	37.5 ± 6.8	> 100	0.29 ± 0.01	–
cis(±)-4-{4-[4-{4-[2-(thiazol-2-yl)-2-(1H-1,2,4-triazol-1-yl-methyl)-1,3-dioxolan-4-yl-methoxy]phenyl}-1-piperazinyl]-phenyl}-2-(1-(R,S)methylpropyl)-2,4-dihydro-3H-1,2,4-triazol-3-one [Example 12]	–	–	–	–	–	–	10.9 ± 0.4	18.2 ± 0.3	–	0.3 ± 0.1	–
cis(±)-4-{4-[4-{4-[2-(pyridin-3-yl)-2-(1H-1,2,4-triazol-1-yl-methyl)-1,3-dioxolan-4-yl-methoxy]phenyl}-1-piperazinyl]-phenyl}-2-(1-(R,S)methylpropyl)-2,4-dihydro-3H-1,2,4-triazol-3-one [Example 11]	–	–	–	–	–	–	31.5 ± 3.9	64.2 ± 6.2	–	0.7 ± 0.1	–
CC[C@@H](C)n1ncn(-c2ccc(N3CCN(c4ccc(OC[C@H]5CO[C@@](Cn6cncn6)(c6ccccn6)O5)cc4)CC3)cc2)c1=O (relative stereo) [Example 15, cis(−)-4-{4-[4-{4-[2-(pyridin-2-yl)-2-(1H-1,2,4-triazol-1-yl-methyl)-1,3-dioxolan-4-yl-methoxy]phenyl}piperazin-1-yl]-phenyl}-2-[(1,R)-1-methylpropyl]-2,4-dihydro-3H-1,2,4-triazol-3-one]	–	≦0.03 mg/ml	250 (≈ 392 µM)	≦0.03 mg/ml	0.12	> 100	25.5 ± 4.3	26.1 ± 1.3	84 ± 39.4	0.41 ± 0.13	–
CCC(C)n1ncn(-c2ccc(N3CCN(c4ccc(OCC5COC(Cn6cncn6)(c6ccc(Cl)cc6Cl)O5)cc4)CC3)cc2)c1=O (stereo not shown) [Itraconazole, reference compound]	–	–	–	–	–	> 100	0.2 ± 0.06	1.6 ± 0.2	> 100	–	IC50 ([1]; Candida albicans, read-out: IC50 (minimum concentration to bring about 50% inhibition)): ≤ 30 µg/mL; IC50 ([3]; Nakaseomyces glabratus, read-out: IC50 (minimum concentration to bring about 50% inhibition)): 500 µg/mL (≈ 709 µM); IC50 ([4]; Lodderomyces parapsilosis, ATCC22019, read-out: IC50 (minimum concentration to bring about 50% inhibition)): 120 µg/mL (≈ 170 µM); IC50 ([2]; read-out: IC50 (minimum concentration to bring about 50% inhibition), Aspergillus fumigatus strain 34): 1000 µg/mL (≈ 1420 µM); IC50 ([2]; read-out: IC50 (minimum concentration to bring about 50% inhibition), Aspergillus fumigatus strain 99-2135): 250 µg/mL (≈ 354 µM); Surviving mice 21 days after infection [10]: 0%; Average survival (days) ± S.D. ([10]; observed until day 30): 9.2 ± 1.1 days
